Kd data for three molecules are collected here from paper PMC9753400, “Conformational alteration in glycan induces phospholipase Cβ1 activation and angiogenesis” (Journal of Biomedical Science, 2022).

The target in assay [1] is T1, TRAX (translin-associated factor X) (Homo sapiens, UniProt Q99598).
T1 construct: gene TSNAX; full-length, cDNA from HUVEC mRNA, pET-21d, nine-histidine tag (text says N-terminal; His codons printed in the R'-primer), expressed in E. coli BL21 (DE3), HisTrap / DEAE / SP-Sepharose; immobilised on CM5 chip
T1 sequence (Q99598 1-290): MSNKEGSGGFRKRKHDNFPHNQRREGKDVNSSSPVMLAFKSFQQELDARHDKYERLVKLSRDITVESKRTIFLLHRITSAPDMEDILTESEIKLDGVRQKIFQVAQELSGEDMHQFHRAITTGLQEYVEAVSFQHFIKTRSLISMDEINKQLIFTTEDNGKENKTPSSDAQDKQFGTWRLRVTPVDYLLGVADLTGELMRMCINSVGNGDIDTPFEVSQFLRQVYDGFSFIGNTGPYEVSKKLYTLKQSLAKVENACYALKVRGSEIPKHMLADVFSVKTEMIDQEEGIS
Kind of assay: SPR (Biacore X), TRAX amine-coupled to CM5 chip. Conditions: HBS-P running buffer, GSL diluted from methanol stock. It counts as binding. In general terms: In SPR one partner is held on a chip, and binding of the other changes the refractive index at the surface.

For assay [2], the target named is T2, recombinant human full-length translin-associated factor X (TRAX) (human, UniProt Q99598 1-290).
T2 construct: translin-associated factor X (TRAX), human, full length, cDNA from HUVECs, in pET-21d; Removal of the tag is not mentioned; also called recombinant TRAX; wild-type TRAX; source: E. coli BL21 (DE3) pLys, purified (HisTrap FF, DEAE-Sepharose, SP-Sepharose)
T2 sequence (looked up): T1 sequence (Q99598 1-290)
As to the kind of experiment: SPR; Biacore X; TRAX amine-coupled to CM5 chip (about 2500 RU), PLCβ1-C flowed over, HBS-P running buffer; competition runs with PLCβ1-C 360 nM plus 0, 1 or 9 μM GHCer. Conditions: both partners purified.

What is called Kd is the equilibrium constant for the complex coming apart.

On to “Fucα1 → 2Galβ1 → 3GalNAcβ1 → 3Galα1 → 4Galβ1 → 4Glcβ1-ceramide [GHCer]”, for which the Kd in assay [1] (competes with PLCβ1 C-terminal domain) was found to be 0.0409 µM. “Galβ1 → 3GalNAcβ1 → 3Galα1 → 4Galβ1 → 4Glcβ1-ceramide [SSEA3Cer]”: the Kd in assay [1] (tested at 10 μM) was over 10 µM.

B1: recombinant C-terminal domain of PLCβ1 (PLCβ1-C), amino acids 890 to 1161 (domain or fragment, human, UniProt Q9NQ66 890-1161, looked up)
chain: APAKTEDLIQSVLTEVEAQTIEELKQQKSFVKLQKKHYKEMKDLVKRHHKKTTDLIKEHTTKYNEIQNDYLRRRAALEKSAKKDSKKKSEPSSPDHGSSTIEQDLAALDAEMTQKLIDLKDKQQQQLLNLRQEQYYSEKYQKREHIKLLIQKLTDVAEECQNNQLKKLKEICEKEKKELKKKMDKKRQEKITEAKSKDKSQMEEEKTEMIRSYIQEVVQYIKRLEEAQSKRQEKLVEKHKEIRQQILDEKPKLQVELEQEYQDKFKRLPLEI
notes: phospholipase C β1 (PLCβ1), human, C-terminal domain, residues 890-1161, cDNA from HUVECs, in pET-21d; Removal of the tag is not mentioned; also called recombinant C-terminus of PLCβ1; source: E. coli BL21 (DE3) pLys, purified (HisTrap FF, DEAE-Sepharose, SP-Sepharose)
For B1, the Kd in assay [2] is about 7.5 µM.
